These are literature values, as cited in patent US11116842B2, “Methylene blue complex for treating skin disease and its use thereof” (D. R. NANO Co., Ltd., priority 2017, dated 2021).

The test system of this data set is skin disease such as acne. As to conditions: for side effect in a long-term application: background art.

Take `NCC(=O)CCC(=O)O` [ALA, 5-aminolevulinic acid]: the “side effect in a long-term application” value is “xeroderma”. Under “prior-art photosensitizers”, the “Light protection time after operation” value is recorded as “T > 30 hr” and the Treatment effect entry is “strong”.
As for `COC(=O)CCC(=O)CN` [MAL, Methyl-aminolevulinate], the “side effect in a long-term application” value is recorded as “xeroderma”.
